Assay [1] has as its target Beta-3 adrenergic receptor (Homo sapiens, UniProt P13945). Kind of assay: PDSP Secondary Binding target: ADRB3 - Compounds are tested at 10 uM concentration, plate are incubated at room temperature in the dark for 90 minutes. Reaction are stopped by vacuum filtration onto 0.3% polyethyleneimine soaked filter mats using Filtermate harvester. Scintillation cocktail is then melted onto microwave-dried filters on a hot plate and the radio activity is counted in Microbia counter.

Assay [2] deals with Beta-1 adrenergic receptor (Homo sapiens, UniProt P08588). Put plainly: PDSP Secondary Binding target: ADRB1 - Compounds are tested at 10 uM concentration, plate are incubated at room temperature in the dark for 90 minutes. Reaction are stopped by vacuum filtration onto 0.3% polyethyleneimine soaked filter mats using Filtermate harvester. Scintillation cocktail is then melted onto microwave-dried filters on a hot plate and the radio activity is counted in Microbia counter.

For assay [3], the target named is T1, 5-hydroxytryptamine receptor 3A (Homo sapiens, UniProt P46098).
T1 sequence (P46098 whole entry): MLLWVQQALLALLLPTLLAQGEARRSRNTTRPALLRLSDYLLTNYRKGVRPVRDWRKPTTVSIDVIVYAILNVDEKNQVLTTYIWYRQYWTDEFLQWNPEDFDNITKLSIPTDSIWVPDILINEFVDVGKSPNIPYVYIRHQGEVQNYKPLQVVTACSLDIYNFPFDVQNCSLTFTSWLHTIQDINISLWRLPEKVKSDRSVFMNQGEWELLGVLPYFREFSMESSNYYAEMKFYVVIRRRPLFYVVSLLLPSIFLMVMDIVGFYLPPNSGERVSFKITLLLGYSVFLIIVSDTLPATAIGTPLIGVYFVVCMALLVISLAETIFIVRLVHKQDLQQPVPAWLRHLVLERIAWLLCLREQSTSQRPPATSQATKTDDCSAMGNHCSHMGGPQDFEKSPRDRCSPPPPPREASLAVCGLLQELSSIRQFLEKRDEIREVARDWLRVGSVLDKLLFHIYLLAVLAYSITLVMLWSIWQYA
Put plainly: PDSP Secondary Binding target: HTR3A - Compounds are tested at 10 uM concentration, plate are incubated at room temperature in the dark for 90 minutes. Reaction are stopped by vacuum filtration onto 0.3% polyethyleneimine soaked filter mats using Filtermate harvester. Scintillation cocktail is then melted onto microwave-dried filters on a hot plate and the radio activity is counted in Microbia counter.

The target in assay [4] is T2, Alpha-1D adrenergic receptor (Homo sapiens, UniProt P25100).
T2 sequence (P25100 whole entry): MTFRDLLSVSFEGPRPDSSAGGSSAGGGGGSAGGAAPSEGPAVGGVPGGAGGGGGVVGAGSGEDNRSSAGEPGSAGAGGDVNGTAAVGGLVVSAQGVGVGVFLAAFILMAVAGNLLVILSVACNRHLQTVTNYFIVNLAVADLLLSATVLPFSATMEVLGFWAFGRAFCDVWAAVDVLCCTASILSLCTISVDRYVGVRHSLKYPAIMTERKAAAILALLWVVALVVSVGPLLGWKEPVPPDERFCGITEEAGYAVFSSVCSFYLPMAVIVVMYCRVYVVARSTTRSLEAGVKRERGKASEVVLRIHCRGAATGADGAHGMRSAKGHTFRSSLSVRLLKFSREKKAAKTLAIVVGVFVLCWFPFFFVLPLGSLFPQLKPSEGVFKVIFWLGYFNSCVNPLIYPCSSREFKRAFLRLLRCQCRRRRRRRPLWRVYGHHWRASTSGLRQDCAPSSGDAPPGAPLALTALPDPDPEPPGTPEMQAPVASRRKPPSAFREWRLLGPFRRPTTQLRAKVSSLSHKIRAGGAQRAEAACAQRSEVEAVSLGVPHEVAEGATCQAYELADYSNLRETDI
Kind of assay: PDSP Secondary Binding target: ADRA1D - Compounds are tested at 10 uM concentration, plate are incubated at room temperature in the dark for 90 minutes. Reaction are stopped by vacuum filtration onto 0.3% polyethyleneimine soaked filter mats using Filtermate harvester. Scintillation cocktail is then melted onto microwave-dried filters on a hot plate and the radio activity is counted in Microbia counter.

Assay [5] has as its target Delta-type opioid receptor (Homo sapiens, UniProt P41143). Kind of assay: PDSP Secondary Binding target: OPRD1 - Compounds are tested at 10 uM concentration, plate are incubated at room temperature in the dark for 90 minutes. Reaction are stopped by vacuum filtration onto 0.3% polyethyleneimine soaked filter mats using Filtermate harvester. Scintillation cocktail is then melted onto microwave-dried filters on a hot plate and the radio activity is counted in Microbia counter.

Assay [6] addresses Histamine H4 receptor (Homo sapiens, UniProt Q9H3N8). Kind of assay: PDSP Secondary Binding target: HRH4 - Compounds are tested at 10 uM concentration, plate are incubated at room temperature in the dark for 90 minutes. Reaction are stopped by vacuum filtration onto 0.3% polyethyleneimine soaked filter mats using Filtermate harvester. Scintillation cocktail is then melted onto microwave-dried filters on a hot plate and the radio activity is counted in Microbia counter.

Assay [7] has as its target Sigma non-opioid intracellular receptor 1 (Homo sapiens, UniProt Q99720). Put plainly: PDSP Secondary Binding target: SIGMAR1 - Compounds are tested at 10 uM concentration, plate are incubated at room temperature in the dark for 90 minutes. Reaction are stopped by vacuum filtration onto 0.3% polyethyleneimine soaked filter mats using Filtermate harvester. Scintillation cocktail is then melted onto microwave-dried filters on a hot plate and the radio activity is counted in Microbia counter.

Assay [8] addresses 5-hydroxytryptamine receptor 2B (Homo sapiens, UniProt P41595). Put plainly: PDSP Secondary Binding target: HTR2B - Compounds are tested at 10 uM concentration, plate are incubated at room temperature in the dark for 90 minutes. Reaction are stopped by vacuum filtration onto 0.3% polyethyleneimine soaked filter mats using Filtermate harvester. Scintillation cocktail is then melted onto microwave-dried filters on a hot plate and the radio activity is counted in Microbia counter.

In assay [9] the target is Histamine H1 receptor (Homo sapiens, UniProt P35367). Kind of assay: PDSP Secondary Binding target: HRH1 - Compounds are tested at 10 uM concentration, plate are incubated at room temperature in the dark for 90 minutes. Reaction are stopped by vacuum filtration onto 0.3% polyethyleneimine soaked filter mats using Filtermate harvester. Scintillation cocktail is then melted onto microwave-dried filters on a hot plate and the radio activity is counted in Microbia counter.

Assay [10] concerns the target 5-hydroxytryptamine receptor 2A (Homo sapiens, UniProt P28223). Put plainly: PDSP Secondary Binding target: HTR2A - Compounds are tested at 10 uM concentration, plate are incubated at room temperature in the dark for 90 minutes. Reaction are stopped by vacuum filtration onto 0.3% polyethyleneimine soaked filter mats using Filtermate harvester. Scintillation cocktail is then melted onto microwave-dried filters on a hot plate and the radio activity is counted in Microbia counter.

Sequence of Beta-1 adrenergic receptor (P08588 whole entry): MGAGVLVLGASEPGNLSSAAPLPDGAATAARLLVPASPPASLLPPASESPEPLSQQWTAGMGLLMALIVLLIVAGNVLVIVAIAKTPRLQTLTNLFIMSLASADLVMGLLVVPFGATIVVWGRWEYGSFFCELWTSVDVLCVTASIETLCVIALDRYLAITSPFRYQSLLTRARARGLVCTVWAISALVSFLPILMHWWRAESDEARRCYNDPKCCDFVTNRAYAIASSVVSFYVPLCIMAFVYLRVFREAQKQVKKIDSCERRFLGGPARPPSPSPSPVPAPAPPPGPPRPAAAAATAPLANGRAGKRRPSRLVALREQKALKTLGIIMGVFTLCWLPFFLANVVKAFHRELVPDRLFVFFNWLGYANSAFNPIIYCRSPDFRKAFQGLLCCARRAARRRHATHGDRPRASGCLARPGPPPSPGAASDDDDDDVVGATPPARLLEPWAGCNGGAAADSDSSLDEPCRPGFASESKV
Sequence of Histamine H1 receptor (P35367 whole entry): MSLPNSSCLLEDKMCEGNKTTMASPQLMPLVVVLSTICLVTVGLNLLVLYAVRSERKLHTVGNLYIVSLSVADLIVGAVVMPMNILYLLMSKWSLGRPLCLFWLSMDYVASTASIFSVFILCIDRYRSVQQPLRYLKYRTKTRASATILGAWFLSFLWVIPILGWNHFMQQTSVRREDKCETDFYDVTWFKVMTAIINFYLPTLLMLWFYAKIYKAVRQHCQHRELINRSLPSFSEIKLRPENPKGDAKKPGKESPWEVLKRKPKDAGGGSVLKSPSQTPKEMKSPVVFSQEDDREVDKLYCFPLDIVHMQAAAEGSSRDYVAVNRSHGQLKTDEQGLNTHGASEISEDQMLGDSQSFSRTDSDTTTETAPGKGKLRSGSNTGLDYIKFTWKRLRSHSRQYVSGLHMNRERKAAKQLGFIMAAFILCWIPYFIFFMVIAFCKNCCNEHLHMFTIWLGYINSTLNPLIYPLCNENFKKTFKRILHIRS
Sequence of 5-hydroxytryptamine receptor 2B (P41595 whole entry): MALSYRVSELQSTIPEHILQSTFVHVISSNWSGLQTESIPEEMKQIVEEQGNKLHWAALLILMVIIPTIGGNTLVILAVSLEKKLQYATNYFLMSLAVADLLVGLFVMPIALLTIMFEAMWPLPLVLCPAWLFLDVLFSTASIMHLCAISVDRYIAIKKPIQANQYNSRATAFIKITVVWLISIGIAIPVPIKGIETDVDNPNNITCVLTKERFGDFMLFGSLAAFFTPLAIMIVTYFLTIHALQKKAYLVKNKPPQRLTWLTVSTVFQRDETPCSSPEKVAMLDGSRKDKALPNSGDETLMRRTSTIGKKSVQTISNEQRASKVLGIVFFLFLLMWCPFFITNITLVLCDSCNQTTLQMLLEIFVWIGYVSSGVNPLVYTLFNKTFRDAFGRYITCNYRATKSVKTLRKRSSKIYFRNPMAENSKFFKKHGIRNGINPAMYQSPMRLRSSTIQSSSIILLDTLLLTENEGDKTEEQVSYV
Sequence of Sigma non-opioid intracellular receptor 1 (Q99720 whole entry): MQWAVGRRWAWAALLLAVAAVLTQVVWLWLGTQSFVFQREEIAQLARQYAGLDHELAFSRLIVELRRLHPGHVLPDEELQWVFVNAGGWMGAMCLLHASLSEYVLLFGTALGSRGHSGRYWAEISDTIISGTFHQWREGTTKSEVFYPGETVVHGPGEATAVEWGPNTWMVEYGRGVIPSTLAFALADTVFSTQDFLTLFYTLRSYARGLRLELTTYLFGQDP
Sequence of Delta-type opioid receptor (P41143 whole entry): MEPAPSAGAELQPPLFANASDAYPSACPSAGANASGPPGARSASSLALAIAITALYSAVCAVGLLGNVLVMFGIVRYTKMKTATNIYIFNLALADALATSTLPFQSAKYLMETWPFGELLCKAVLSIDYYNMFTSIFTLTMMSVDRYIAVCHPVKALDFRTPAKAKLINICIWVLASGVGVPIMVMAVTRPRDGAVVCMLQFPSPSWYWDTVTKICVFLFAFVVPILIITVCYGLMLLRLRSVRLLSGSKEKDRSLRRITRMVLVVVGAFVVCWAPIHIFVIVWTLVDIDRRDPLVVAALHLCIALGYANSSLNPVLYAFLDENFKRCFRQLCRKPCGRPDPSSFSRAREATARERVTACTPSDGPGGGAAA
Sequence of Beta-3 adrenergic receptor (P13945 whole entry): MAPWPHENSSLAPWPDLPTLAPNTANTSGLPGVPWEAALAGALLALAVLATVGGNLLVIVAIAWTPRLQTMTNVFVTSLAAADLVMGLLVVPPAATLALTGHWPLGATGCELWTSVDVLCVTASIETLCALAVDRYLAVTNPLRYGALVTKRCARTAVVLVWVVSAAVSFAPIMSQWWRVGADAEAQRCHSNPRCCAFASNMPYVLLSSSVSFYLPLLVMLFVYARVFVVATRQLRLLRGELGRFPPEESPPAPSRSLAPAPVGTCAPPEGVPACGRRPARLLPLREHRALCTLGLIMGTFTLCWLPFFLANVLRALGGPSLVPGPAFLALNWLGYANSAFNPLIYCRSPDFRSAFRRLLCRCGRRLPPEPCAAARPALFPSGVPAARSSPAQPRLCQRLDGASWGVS
Sequence of Histamine H4 receptor (Q9H3N8 whole entry): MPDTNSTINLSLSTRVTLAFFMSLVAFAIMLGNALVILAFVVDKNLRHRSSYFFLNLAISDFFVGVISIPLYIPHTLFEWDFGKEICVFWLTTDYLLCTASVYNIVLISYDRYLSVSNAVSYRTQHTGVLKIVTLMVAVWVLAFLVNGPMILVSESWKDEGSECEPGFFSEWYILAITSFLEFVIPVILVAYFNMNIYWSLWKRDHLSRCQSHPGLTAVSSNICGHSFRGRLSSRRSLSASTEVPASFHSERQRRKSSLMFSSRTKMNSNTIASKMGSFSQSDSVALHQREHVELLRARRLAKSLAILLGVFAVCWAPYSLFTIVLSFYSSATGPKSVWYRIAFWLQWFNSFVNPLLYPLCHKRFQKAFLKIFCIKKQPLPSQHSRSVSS
Sequence of 5-hydroxytryptamine receptor 2A (P28223 whole entry): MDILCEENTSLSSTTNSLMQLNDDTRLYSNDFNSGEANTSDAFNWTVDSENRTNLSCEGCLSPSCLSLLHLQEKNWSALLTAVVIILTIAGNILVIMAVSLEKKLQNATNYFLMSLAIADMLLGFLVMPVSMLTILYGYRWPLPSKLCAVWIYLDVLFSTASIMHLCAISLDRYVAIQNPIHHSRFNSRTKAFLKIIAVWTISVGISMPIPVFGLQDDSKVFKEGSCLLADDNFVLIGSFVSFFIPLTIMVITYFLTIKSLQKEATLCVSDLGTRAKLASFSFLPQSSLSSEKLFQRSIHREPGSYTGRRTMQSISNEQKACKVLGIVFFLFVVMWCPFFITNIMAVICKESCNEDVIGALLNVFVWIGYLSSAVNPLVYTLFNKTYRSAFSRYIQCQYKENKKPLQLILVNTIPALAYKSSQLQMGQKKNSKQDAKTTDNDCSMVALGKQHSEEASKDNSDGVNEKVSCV

Broadly, the Ki is a dissociation constant, usually derived from enzyme kinetics or from competition with a known ligand. For `O=C(Nc1ccc(Cl)cc1)Nc1cccc(-c2cccc(N3CCCC3)n2)c1`, the Ki in assay [1] and in assay [2] was more than 10000 nM in each case.

`Nc1nc2c(c(N3CCNCC3)n1)CCC1=C2[C@@H]2CCCC[C@@H]2O1`: the Ki was 352 nM in [3]; 8030 nM in assay [4]; more than 10000 nM in assay [5]; 18 nM in [6]; 463 nM in [7]; 280 nM in [8]. Besides, the inhibition constant Ki came out at 1280 nM in assay [9] and 6430 nM in [10].

Source of the values: ChEMBL document CHEMBL5442175, “EUbOPEN Chemogenomics Library - PDSP Secondary Binding” (2024).
